Biological target: T1, IRAK4 (Homo sapiens, UniProt Q9NWZ3)
T1 construct: endogenous in cells; host or cells: OCI-LY10
T1 sequence (Q9NWZ3 1-460): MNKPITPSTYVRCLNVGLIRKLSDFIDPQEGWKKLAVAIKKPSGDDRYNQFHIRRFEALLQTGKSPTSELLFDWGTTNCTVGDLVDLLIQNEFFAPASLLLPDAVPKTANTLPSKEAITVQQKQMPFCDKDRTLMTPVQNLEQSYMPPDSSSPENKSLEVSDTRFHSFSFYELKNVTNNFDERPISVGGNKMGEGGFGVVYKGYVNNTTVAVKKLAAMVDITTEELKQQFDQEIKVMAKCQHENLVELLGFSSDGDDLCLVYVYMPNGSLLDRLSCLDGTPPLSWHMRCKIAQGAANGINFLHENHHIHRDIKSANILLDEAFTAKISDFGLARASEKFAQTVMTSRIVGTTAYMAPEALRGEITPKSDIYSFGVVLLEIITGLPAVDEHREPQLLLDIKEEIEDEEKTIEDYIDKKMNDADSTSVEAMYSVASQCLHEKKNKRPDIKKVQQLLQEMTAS
Experiment: IRAK4 MSD degradation in OCI-LY10
Type: cell-based
Conditions: OCI-LY10 cells, 24 hrs, Meso Scale Discovery
Procedure, shortened: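 OCI-LY10 cells treated 4 to 24 hours at 37° C. with 8-dose 1:3 series, top 1 to 10 μM. IRAK4 in lysates quantified by MSD sandwich immunoassay (mouse capture, rabbit detection, SULFO-TAG anti-rabbit). DC50 from three-parameter logistic fit.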

Structure (SMILES) | DC50 [nM]
COc1cc2nn([C@H]3CC[C@H](CN(C)[C@@H]4CCN(c5cccc6c5n(C)c(=O)n6C5CCC(=O)NC5=O)C[C@@H]4F)CC3)cc2cc1NC(=O)c1cccc(C(F)(F)F)n1 (stereo partly shown) [I-81] | < 10
Cn1c(=O)n([C@H]2CCC(=O)NC2=O)c2cccc(N3CCC4(CCN(C[C@H]5CC[C@H](n6cc7cc(NC(=O)c8cncc(C#N)c8)c(C(C)(C)O)cc7n6)CC5)CC4(F)F)CC3)c21 (single isomer, unassigned) [I-225] | < 10
CN(C[C@H]1C[C@@H](n2cc(NC(=O)c3cnn4ccc(N5C[C@H]6C[C@@H]5CO6)nc34)c(C(F)F)n2)C1)[C@@H]1CCN(c2cccc3c2n(C)c(=O)n3C2CCC(=O)NC2=O)C[C@@H]1F (stereo partly shown) [I-64] | < 10
COc1cc2nc([C@H]3CC[C@H](CN(C)[C@@H]4CCN(c5cccc6c5n(C)c(=O)n6C5CCC(=O)NC5=O)C[C@H]4F)CC3)cn2cc1NC(=O)c1cncc(C(F)(F)F)n1 (single isomer, unassigned) [I-317] | < 10
Cn1c(=O)n(C2CCC(=O)NC2=O)c2ccc([C@H]3CCN(C[C@H]4CC[C@H](n5cc6cc(NC(=O)c7cncc(C(F)(F)F)n7)ccc6n5)CC4)C[C@@H]3F)cc21 (single isomer, unassigned) [I-351] | > 200
CN(C[C@H]1CC[C@H](n2cc(NC(=O)c3cnn4ccc(N5CCCC5)nc34)c(C(F)F)n2)CC1)[C@@H]1CCN(c2cccc3c2n(C)c(=O)n3C2CCC(=O)NC2=O)C[C@H]1F (stereo partly shown) [I-40] | < 10
COc1cn2nc([C@H]3CC[C@H](CN4CCC5(CCN(c6cccc7c6n(C)c(=O)n7C6CCC(=O)NC6=O)CC5)C(F)(F)C4)CC3)cc2cc1NC(=O)c1cncc(C#N)c1 (stereo partly shown) [I-282] | > 200
COc1cc2nc([C@H]3CC[C@H](CN4CCC5(CCN(c6cccc7c6n(C)c(=O)n7C6CCC(=O)NC6=O)CC5)C(F)(F)C4)CC3)sc2cc1NC(=O)c1cncc(C#N)c1 (stereo partly shown) [I-150] | > 200
COc1nc(NC(=O)c2cccc(C(F)F)n2)cc2cn([C@H]3CC[C@H](CN4CC[C@H](c5cccc6c5n(C)c(=O)n6C5CCC(=O)NC5=O)C(F)(F)C4)CC3)nc12 (stereo partly shown) [I-44] | 10 to 100
Cn1c(=O)n(C2CCC(=O)NC2=O)c2cccc(N3CCC4(CCN(C[C@H]5CC[C@H](n6cc7cc(NC(=O)c8cccc(C(F)(F)F)c8)ccc7n6)CC5)CC4(F)F)CC3)c21 (stereo partly shown) [I-158] | 10 to 100
Cn1c(=O)n(C2CCC(=O)NC2=O)c2cccc([C@H]3CCN(C[C@H]4CC[C@H](n5cc6cc(NC(=O)c7cccc(C(F)(F)F)n7)ccc6n5)CC4)C[C@@H]3F)c21 (single isomer, unassigned) [I-11] | < 10
COc1cc2nc([C@H]3CC[C@H](CN(C)[C@H]4CCN(c5cccc6c5n(C)c(=O)n6C5CCC(=O)NC5=O)C[C@@H]4F)CC3)cn2cc1NC(=O)c1cncc(C(F)(F)F)n1 (single isomer, unassigned) [I-318] | < 10
O=C1CCN(c2cncc3c(N4CC(O)(CN5CCN(C[C@H]6CC[C@H](n7cc(NC(=O)c8cnn9ccc(N%10C[C@H]%11C[C@@H]%10CO%11)nc89)c(C(F)F)n7)CC6)CC5)C4)cccc23)C(=O)N1 [I-67] | < 10
Cn1c(=O)n(C2CCC(=O)NC2=O)c2ccc(F)c([C@H]3CCN(C[C@H]4CC[C@H](n5cc6cc(NC(=O)c7cncc(C(F)(F)F)n7)ccc6n5)CC4)CC3(F)F)c21 (single isomer, unassigned) [I-377] | < 10
COc1cc2nn([C@H]3CC[C@H](CN4CCC5(CC4)CCN(c4cccc6c4c(C)nn6C4CCC(=O)NC4=O)CC5)CC3)cc2cc1NC(=O)c1cncc(C)c1 (stereo partly shown) [I-50] | 10 to 100
CN(C[C@H]1CC[C@H](n2cc3cc(NC(=O)c4cccc(C(F)(F)F)n4)c(C(C)(C)O)cc3n2)CC1)[C@@H]1CCN(c2cccc3c2n(C)c(=O)n3C2CCC(=O)NC2=O)C[C@@H]1F (stereo partly shown) [I-69] | < 10

Structure (SMILES) | DC50 [nM]
CN(C[C@H]1CC[C@H](n2cc3cc(NC(=O)c4cccc(C(F)(F)F)n4)c(C(C)(C)O)cc3n2)CC1)[C@H]1CCN(c2cccc3c2n(C)c(=O)n3C2CCC(=O)NC2=O)C[C@H]1F (stereo partly shown) [I-70] | < 10
Cn1c(=O)n(C2CCC(=O)NC2=O)c2cccc([C@@H]3CCN(C[C@H]4C[C@H](n5cc6cc(NC(=O)c7cccc(C(F)(F)F)n7)c(C#N)cc6n5)C4)C[C@H]3F)c21 (stereo partly shown) [I-94] | < 10
CN(C[C@H]1C[C@@H](n2cc(NC(=O)c3cnn4ccc(N5C[C@H]6C[C@@H]5CO6)nc34)c(C(F)F)n2)C1)[C@H]1CCN(c2cccc3c2n(C)c(=O)n3C2CCC(=O)NC2=O)C[C@H]1F (stereo partly shown) [I-65] | < 10
Cn1c(=O)n(C2CCC(=O)NC2=O)c2cccc([C@@H]3CCN(C[C@H]4CC[C@H](n5cc6cc(NC(=O)c7cccc(C(F)(F)F)n7)c(C(C)(C)O)cc6n5)CC4)C[C@H]3F)c21 (stereo partly shown) [I-7] | < 10
COc1cc2nn([C@H]3CC[C@H](CN4CCC5(CCN(c6cccc7c6c(C)nn7C6CCC(=O)NC6=O)CC5)C(F)(F)C4)CC3)cc2cc1NC(=O)c1cncc(C#N)c1 (stereo partly shown) [I-131] | 10 to 100
CN(C[C@H]1CC[C@H](c2nc3cc(C(C)(C)O)c(NC(=O)c4cncc(C(F)(F)F)n4)cc3o2)CC1)[C@H]1CCN(c2cccc3c2n(C)c(=O)n3C2CCC(=O)NC2=O)C[C@@H]1F (single isomer, unassigned) [I-298] | < 10
N#Cc1cncc(C(=O)Nc2cc3cn([C@H]4CC[C@H](CN5CCN(CC(=O)Nc6cccc7c(C8CCC(=O)NC8=O)noc67)CC5)CC4)nc3cn2)c1 (stereo partly shown) [I-84] | > 200
Cn1c(NC(=O)c2cccc(C(F)(F)F)n2)cc2cn([C@H]3CC[C@H](CN4CC[C@@H](c5cccc6c5n(C)c(=O)n6C5CCC(=O)NC5=O)C(F)(F)C4)CC3)nc2c1=O (stereo partly shown) [I-39] | > 200
Cn1c(=O)n([C@@H]2CCC(=O)NC2=O)c2cccc([C@@H]3CCN(C[C@H]4CC[C@H](n5cc6cc(NC(=O)c7cncc(C(F)(F)F)n7)ccc6n5)CC4)CC3(F)F)c21 (single isomer, unassigned) [I-381] | < 10
CN(C[C@H]1C[C@H](n2cc(NC(=O)c3cnn4ccc(N5C[C@H]6C[C@@H]5CO6)nc34)c(C(F)F)n2)C1)[C@H]1CCN(c2cccc3c2n(C)c(=O)n3C2CCC(=O)NC2=O)C[C@H]1F (single isomer, unassigned) [I-60] | < 10
Cn1c(=O)n(C2CCC(=O)NC2=O)c2cccc([C@H]3CCN(C[C@H]4CC[C@H](c5nc6ccc(NC(=O)c7cccc(C(F)(F)F)n7)cc6s5)CC4)C[C@@H]3F)c21 (stereo partly shown) [I-97] | 10 to 100
Cn1c(=O)n(C2CCC(=O)NC2=O)c2cccc(C#CCN3CCN(C[C@H]4CC[C@H](n5cc(NC(=O)c6cnn7ccc(N8C[C@H]9C[C@@H]8CO9)nc67)c(C(F)F)n5)CC4)C[C@@H]3C(F)(F)F)c21 (single isomer, unassigned) [I-303] | 10 to 100
Cn1c(=O)n([C@@H]2CCC(=O)NC2=O)c2cccc([C@@H]3CCN(C[C@H]4CC[C@H](c5nc6cc(C(C)(C)O)c(NC(=O)c7cncc(C#N)c7)cc6s5)CC4)C[C@H]3F)c21 (single isomer, unassigned) [I-237] | < 10
CN(C[C@H]1C[C@H](n2cc(NC(=O)c3cnn4ccc(N5C[C@H]6C[C@@H]5CO6)nc34)c(C(F)F)n2)C1)[C@H]1CCN(c2cccc3c2n(C)c(=O)n3C2CCC(=O)NC2=O)C[C@@H]1F (single isomer, unassigned) [I-6] | < 10
Cn1c(=O)n(C2CCC(=O)NC2=O)c2cccc(C#CCN3CCN(C[C@H]4CC[C@H](n5cc(NC(=O)c6cnn7ccc(N8C[C@H]9C[C@@H]8CO9)nc67)c(C(F)F)n5)CC4)[C@H](C(F)(F)F)C3)c21 (stereo partly shown) [I-345] | 10 to 100
